Earlier results as cited in US20070015719A1 (Elan Pharma International Limited, priority 2005, published 2007).

Settings: in acidic solutions

6-o-methyl erythromycin A [clarithromycin]
stability: stable
